# Results reported in US20260272854A1, “PHARMACEUTICAL AGENT, MEDICINAL SOLUTION FOR CLEANING PULMONARY ALVEOLI, AND NEBULIZER” (priority 2019, published 2026).
# Tests used:
# [1] = system: lung field; settings: rat d: washed with physiological saline, then physiological saline containing 5 mM of Spm; applied pressure 20 cm H2O
# Protocol: Plain X-ray imaging and X-ray CT imaging were performed, with an air pressure (0 and 20 cm H2O) exerted through a tracheal cannula, on rats that were euthanized after pulmonary alveolar washing or rats that were subjected to pulmonary alveolar washing immediately after euthanization.
# A rat a was a control that was not subjected to pulmonary alveolar washing. Specifically, a tracheal cannula was inserted into a rat under general anesthesia, and the rat was euthanized without pulmonary alveolar washing.
# A rat b was subjected to pulmonary alveolar washing with physiological saline containing 1 mM of Spm. Specifically, a tracheal cannula was inserted into a rat under general anesthesia, and after the rat was euthanized, 20 ml/kg of a pulmonary alveolar washing solution (physiological saline containing 1 mM of Spm) was injected/suctioned consecutively 5 times within 2 minutes through the tracheal cannula, and the washing solution remaining in the trachea was suctioned out.
# A rat c was subjected to pulmonary alveolar washing with physiological saline. Specifically, a tracheal cannula was inserted into a rat under general anesthesia. […]
# [2] = Surface tension of a hanging droplet, Young-Laplace method (curve fitting); format: physicochemical; settings: for surface tension, polyamine alone: 0-10000 msec; for surface tension reduction effect, polyamine alone: without surfactant; for surface tension in 0.3 mg/ml bovine lung surfactant: 1 mM of polyamine, 10 seconds after production of hanging droplet
# Protocol: Surface tension was measured by the Young-Laplace method (curve fitting) using a contact angle meter (B100, manufactured by Asumi Giken, Limited), on a droplet formed at the tip of a 20-gauge straight needle.
# Tensiometer: contact angle meter (B100, manufactured by Asumi Giken, Limited)
# Surface tension measurement method: Young-Laplace method (curve fitting)
# Hanging droplet production method: a maximum size of droplet not to drop was produced at the tip of a 20-gauge straight needle (an autodispenser was used)
# Imaging of hanging droplet: imaging was performed using a CCD camera
# Bovine lung surfactant: a commercially available bovine lung extract artificial surfactant (Surfacten (trade name), manufactured by Mitsubishi Tanabe Pharma Corporation) was adjusted to a concentration of 30 mg/ml using physiological saline according to the package insert. […] In the drawings, the formulated surfactant solution is indicated by “30 mg/ml surf.”
# 10-fold diluted bovine lung surfactant: a commercially available bovine lung extract artificial surfactant (Surfacten (trade name), manufactured by Mitsubishi Tanabe Pharma Corporation) was adjusted to a concentration of 3 mg/ml using physiological saline. In the drawings, the formulated surfactant solution is indicated by “3 mg/ml surf.”
# 100-fold diluted bovine lung surfactant: a commercially available bovine lung extract artificial surfactant (Surfacten (trade name), manufactured by Mitsubishi Tanabe Pharma Corporation) was adjusted to a concentration of 0.3 mg/ml using physiological saline. Pulmonary surfactant was diluted with physiological saline, i.e., the resultant solution mimics the state of surfactant in a lung affected by ARDS. In the drawings, the formulated surfactant solution is indicated by “100-fold diluted bovine lung surfactant,” “0.3-mg/ml bovine lung surfactant,” “0.3 mg/ml surf,” or “ 1/100 Surf.”
# 1000-fold diluted bovine lung surfactant: a commercially available bovine lung extract artificial surfactant (Surfacten (trade name), manufactured by Mitsubishi Tanabe Pharma Corporation) was adjusted to a concentration of 0.03 mg/ml using physiological saline. In the drawings, the formulated surfactant solution is indicated by “0.03 mg/ml surf.”
# Polyamine-containing 100-fold diluted bovine lung surfactant:
# The solution was formulated using a commercially available polyamine chloride. […]
# [3] = system: ARDS model; assay: Dynamic lung compliance after pulmonary alveolar washing, ventilated ARDS model rat; format: in vivo; settings: for lung compliance after pulmonary alveolar washing: 20 ml/kg, 5 times within 2 minutes; for time it took to recover to 0.9 (lung compliance before washing set as 1.0): average
# Protocol: When the respiratory and circulatory dynamics of the rat were stable under artificial ventilation, an injection/suction operation using 20 ml/kg of a pulmonary alveolar washing solution (physiological saline) through the tracheal cannula was conducted […] consecutively within 2 minutes. […] Thus, an ARDS model whose pulmonary alveoli were washed with physiological saline was produced. The pulmonary alveolar washing operation means production of a respiratory distress syndrome (ARDS) model having decreased lung compliance.
# (§1) The above ventilation was conducted by inverse ratio ventilation without using PEEP. The ventilation was conducted using ambient air (inhaled oxygen concentration FiO2: 0.21) without oxygen administration. The intra-airway pressure and the partial pressure of oxygen in the arterial blood (PaO2) were measured over time. Influence of the polyamines was analyzed, where dynamic lung compliance (=a tidal volume/a change in intra-airway pressure) (expression 1) was used as a measure of the distensibility of the lung, and PaO2/FiO2 (P/F ratio)<300 was used as a criterion for gas exchange dysfunction.
# (§2) When the respiratory and circulatory dynamics of the rat were stable under artificial ventilation, 20 ml/kg of a pulmonary alveolar washing solution (physiological saline) was injected/suctioned consecutively 5 times within 2 minutes through the tracheal cannula. […] Thus, an ARDS model whose pulmonary alveoli were washed with physiological saline was produced.
# as §2, with “(physiological saline containing 0.5 mM of Spm)” for “(physiological saline)”, “with 0.5 mM of Spm” for “with physiological saline”
# as §1, with “polyamine” for “polyamines”, “compliance” for “compliance (=a tidal volume/a change in intra-airway pressure) (expression 1)”, “the P/F ratio<300” for “PaO2/FiO2 (P/F ratio)<300”
# as §2, with “(physiological saline containing 1 mM of Spm)” for “(physiological saline)”, “with 1 mM of Spm” for “with physiological saline”
# When the respiratory and circulatory dynamics of the rat were stable under artificial ventilation, 20 ml/kg of a pulmonary alveolar washing solution (0.3 mg/ml of a bovine lung extract artificial surfactant; the bovine lung extract artificial surfactant was formulated by dissolving Surfacten (trade name), manufactured by Mitsubishi Tanabe Pharma Corporation, in physiological saline to a concentration of 0.3 mg/ml, which is 1/100 of the concentration that is normally for administration to a preterm infant) was injected/suctioned consecutively 5 times within 2 minutes through the tracheal cannula. […] Note that it was confirmed that no polyamines are detected in the bovine lung extract artificial surfactant. […]
# [4] = system: ARDS model; assay: Gas exchange dysfunction occurrence rate (P/F ratio<300) after pulmonary alveolar washing; format: in vivo, rat
# Protocol: Ventilation was conducted by inverse ratio ventilation without using PEEP. The ventilation was conducted using ambient air (inhaled oxygen concentration FiO2: 0.21) without oxygen administration. The intra-airway pressure and the partial pressure of oxygen in the arterial blood (PaO2) were measured over time. Influence of the polyamine was analyzed, where dynamic lung compliance was used as a measure of the distensibility of the lung, and the P/F ratio<300 was used as a criterion for gas exchange dysfunction. […] Influence of Spm administered to pulmonary alveoli on the rate of occurrence of gas exchange dysfunction was analyzed, where the P/F ratio<300 was used as a criterion for gas exchange dysfunction. […] Cases (death) that death occurred before the measurement times, i.e., arterial blood sampling was not conducted, were counted as the case of occurrence of gas exchange dysfunction.
# [5] = system: lung affected by ARDS; settings: transairway administration of 5 mM of Spm, 20 ml/kg, 5 times, after first washing with physiological saline
# Protocol: Specifically, influence of transairway administration of 5 mM of Spm to an ARDS model animal on lung compliance was analyzed.
# A tracheal cannula was inserted into a rat under general anesthesia, and then euthanized. Immediately after that, artificial ventilation was conducted for 30 seconds, and lung compliance before washing that is calculated based on intra-airway pressure was set as 1.0 (“before washing” on the left slide of FIG. 10). Following this, a lung affected by ARDS was produced. Specifically, an injection/suction operation was conducted 5 times consecutively within 2 minutes using 20 ml/kg of physiological saline through the tracheal cannula. After the washing solution remaining in the tracheal cannula was suctioned out, artificial ventilation was conducted for 30 seconds, and the lung compliance of the lung affected by ARDS was calculated and compared with that of the normal lung (“first pulmonary alveolar washing” at the center of FIG. 10). […] After the washing solution remaining in the tracheal cannula was suctioned out, artificial ventilation was conducted for 30 seconds, and the lung compliance calculated based on intra-airway pressure (“second pulmonary alveolar washing” (open column) on the right side of FIG. 10) was compared with that of the lung affected by ARDS. […]
structure (smiles),measurement,setting,value
"NCCCNCCCCNCCCN [Spm, spermine]",CT images of lung field,[1],no wide range of infiltrative shadow was observed
same,X-ray images of lung field,[1],the cardiac shadow became clear
same,"surface tension, polyamine alone",[2]; 0.5 mM of Spm without surfactant,64 mN/m
same,surface tension of 0.3 mg/ml surf,"[2]; presence of 0.5, 1 and 2 mM of Spm",reduced surface tension
same,"surface tension reduction effect, polyamine alone",[2],does not have such a surface tension reduction effect
same,lung compliance after pulmonary alveolar washing,[3]; physiological saline containing 0.5 mM of Spm,lung compliance subsequently recovered
same,lung compliance after pulmonary alveolar washing,[3]; physiological saline containing 1 mM of Spm,lung compliance subsequently recovered
same,"effect of improving lung compliance, 1 mM versus 0.5 mM of Spm",[3]; until 60 minutes after washing,higher for 1 mM of Spm
same,time it took to recover to 0.9 (lung compliance before washing set as 1.0),[3]; washing with 0.5 mM of Spm,60 min
same,time it took to recover to 0.9 (lung compliance before washing set as 1.0),[3]; washing with 1 mM of Spm,15 min
same,gas exchange dysfunction occurrence rate,"[4]; 20 minutes after washing, 1 mM of Spm",lower than the others
same,gas exchange dysfunction occurrence rate,"[4]; 1 hour after washing, Spm-containing physiological saline (0.5 and 1 mM) compared to physiological saline",significantly decreased
same,lung compliance after second pulmonary alveolar washing,[5],improved the lung compliance
"NCCCCNCCCN [Spd, spermidine]",surface tension reduction effect in diluted surfactant environment,[2]; Spd-containing 0.3 mg/ml bovine lung surfactant,has the surface tension reduction effect
same,"surface tension reduction effect, polyamine alone",[2],does not have the surface tension reduction effect
NCCCCCCN [diaminohexane],surface tension in 0.3 mg/ml bovine lung surfactant,[2],reduction in surface tension
same,"surface tension, polyamine alone",[2]; 1 mM without surfactant,62 mN/m
same,"surface tension reduction effect, polyamine alone",[2],does not have the surface tension reduction effect
"NCCCCN [Put, putrescine]",surface tension reduction effect in diluted surfactant environment,"[2]; Put-containing 0.3 mg/ml bovine lung surfactant, 60 seconds after formation of hanging droplet",observed on several tens of seconds after formation of a hanging droplet
same,"surface tension reduction effect, polyamine alone",[2],does not have the surface tension reduction effect
"CC(=O)NCCCNCCCCN [N1-AcSpd, N1-acetylspermidine]",surface tension in 0.3 mg/ml bovine lung surfactant,[2],reduction in surface tension
same,"surface tension, polyamine alone",[2]; 1 mM without surfactant,63 mN/m
same,"surface tension reduction effect, polyamine alone",[2],does not have the surface tension reduction effect
